Experimental data from patent EP0182271A2, “Nb-quaternary dibromo derivatives of ajmaline, isoajmaline, sandwicine and isosandwicine, pharmaceutical compositions containing them, intermediates and process for their preparation” (priority 1984, dated 1986).
Read-outs that look alike come from different tables or passages of the source.

How the values were obtained:
[1] = tested on: ADP-induzierter Plättchenaggregation in PRP-K; assay: Inhibition of ADP-induced platelet aggregation in platelet-rich rabbit plasma (PRP/K), method of Born; assay type: cell-based, Kaninchen; conditions: Oryctolagus cuniculus, 10-6 Mol/l ADP, read-out: % Hemmwirkung gegenüber ADP-induzierter Plättchenaggregation in PRP-K
Source text: 3. Bestimmung der Hemmwirkung auf durch ADP induzierte Blutplättchenaggregation im blutplättchenreichen Kaninchenblutplasma (PRP/K).
Die in-vitro-Bestimmung der antiaggregatorischen Wirkungen der Substanzen wurde nach der Methode von Born (Nature 194, 927 (1962)), modifiziert für Mikrobestimmungen nach Sim et al (Thromb. Res. 1, 655 (1975)) durchgeführt.
PRP/K wird durch Zentrifugieren von mit Antikoagulanz versetztem Kaninchenblut auf bekannte Weise erhalten. Als Kontrollwerte für die photometrische Bestimmung der Aggregationshemmung werden die optische Dichte des unbehandelten PRP/K (^ß0 % Aggregation) und von PRP/K, in welchem Blutplättchenaggregation durch Behandlung von 10-^6 Mol/1 ? ADP erzeugt wurde (100 % Aggregation), gemessen.
Zur Bestimmung der aggregationshemmmenden Wirkungen der Wirkstoffe werden Proben PRP/K mit einer bestimmten Wirkstoffdosis versetzt und dann mit 10-^6 Mol/1 ADP behandelt. Die Verringerung der optischen Dichte gegenüber der des unbehandelten PRP/K wird gemessen und mit der bei der Behandlung von wirkstoffreiem PRP/K mit 10-^6 Mol/l ADP aufgetretenen optischen Dichteverringerung verglichen. Hieraus wird die durch die eingesetzte Wirkstoffdosis entfaltete Hemmwirkung in % Hemmung der in wirkstoffreiem PRP/K verursachten Aggregation berechnet. Die in diesem Test mit Wirkstoffen der Formel I erhaltenen Ergebnisse werden in der nachstehenden Tabelle II wiedergegeben. Die folgenden Tabellen I und II geben nach den vorstehend beschriebenen Testmethoden erhaltene Ergebnisse wieder. Die für die Verbindungen der Formel I angegebenen Beispielsnummern beziehen sich auf die nachstehenden Herstellungsbeispiele.

[2] = Acute 7-day toxicity in mice after a single p.o. dose; set-up: species or system Maus; conditions: in vivo, po, mouse (male NMRI), 50 % mortality on day 7, probit analysis, read-out: Toxizität LD50
Source text: (§1) Beschreibung der pharmakologischen Versuchsmethoden: • 1. Bestimmung der akuten 7-Tage-Toxizität in Mausen. Die akute Toxizität der Wirkstoffe wird in männlichen NMRI-Mäusen (Körpergewicht 18-22 g) nach einmaliger p.o.-Applikation bestimmt. Die LD50 wird als die Dosis in uMol/kg definiert, welcher eine 50 % Mortalität der Tiere am 7. Tag nach der Applikation entspricht. Die LD50-Werte werden durch eine Probit-Analyse errechnet. • 2. Bestimmung der Hemmwirkung der Substanzen auf durch Aconitin-Infusion induzierte Herzrhythmusstörungen in Ratten.

[3] = tested on: durch Aconitin-Infusion induzierte Herzrhythmusstörungen; assay: Inhibition of aconitine-infusion-induced cardiac arrhythmias in rats (method of Raschak); assay type: in vivo, Ratte; conditions: Rattus norvegicus, po, 3 h
Source text: as §1
Die Hemmwirkung auf durch Aconitin-Infusion in Ratten verursachte Herzrhythmusstörungcn (Extrasystolen (ES), ventrikuläre Tachykardie (VT) und Kammerflattern (KF)) werden nach der Methode von Raschak (Arzneimittelforsch. 25 (1975), 639-641) bestimmt.
Männliche Ratten mit einem Körpergewicht von 320-400 g werden durch i.p. Applikation von 1,25 g/kg Urethan narkotisiert. Die Tiere werden auf den Rücken gelegt und ihr Elektrokardiogramm wird während des Versuches alle 30 Sekunden gemessen. Den Tieren wird eine i.v. Aconitin-Infusion mit einer Infusionsgeschwindigkeit von 5 µg/kg/min Aconitin und einem Infusionsvolumen von 0,1 ml/min verabreicht. Drei Stunden vor Beginn der Aconitin-Infusion werden den Tieren die Testsubstanzen p.o. in einer Menge von 2 ml/kg Körpergewicht 2%-iger Tylose-Lösung verabreicht. Einer Kontrollgruppe wird nur die Tylose-Lösung verabreicht. Die Infusionsdauer bis zum Auftreten der verschiedenen Herzrhythmusstörungen wird bestimmt.
Antiarrhythmisch wirksame Testverbindungen führen zu einer Verzögerung des Auftretens der Aconitin-induzierten Herzrhythmusstörungen in den behandelten Tieren im Vergleich zu den Kontrolltieren. Aus dem Ausmaß der Verlängerung der Aconitininfusionsdauer und somit der Erhöhung der verabreichten Aconitinmenge, bis zu welcher die Tiere gegen die durch Aconitin induzierten Herzrhythmusstörungen geschützt sind, läßt sich auf die Stärke der antiarrhythmischen Wirksamkeit der Testsubstanzen schließen. Als ED150 wird die Dosis der Testsubstanzen bestimmt, bei welcher die jeweiligen Herzrhythmusstörungen erst nach der Verlängerung der Aconitinfusionsdauer auf 150 % auftreten.

[4] = read-out: Hemmwirkung gegenüber aconotininduzierten Herzrhythmusstörungen ED150 ES
[5] = read-out: Hemmwirkung gegenüber aconotininduzierten Herzrhythmusstörungen ED150 KF
[6] = read-out: Hemmwirkung gegenüber aconotininduzierten Herzrhythmusstörungen ED150 VT

CCC1C2CC3C4N(C)c5c(Br)cc(Br)cc5C45CC(C2C5O)[N+]3(C)C1O (stereo not shown) [Beispiel 16]
inhibition at 50 µg/mL ([1]; dose 50 µg/ml): 81%

CCC1C2CC3C4N(C)c5c(Br)cc(Br)cc5C45CC(C2C5O)[N+]3(CCN2CCOCC2)C1O (stereo not shown) [Beispiel 62]
LD50 at 168 h [2]: 379 µmol/kg | ED150 [3, 4]: 11 µmol/kg | ED150 [3, 5]: 13 µmol/kg | ED150 [3, 6]: 11 µmol/kg | inhibition at 100 µg/mL [1]: 100%

CCC1C2CC3C4N(C)c5c(Br)cc(Br)cc5C45CC(C2C5O)[N+]3(CCC(C)C)C1O (stereo not shown) [Beispiel 2, Nb-(3-Methylbutyl)-10,12-dibromajmalinium-chlorid]
LD50 at 168 h [2]: 277 µmol/kg | ED150 [3, 4]: 9 µmol/kg | ED150 [3, 5]: 11 µmol/kg | ED150 [3, 6]: 6 µmol/kg

CCC1C2CC3C4N(C)c5c(Br)cc(Br)cc5C45CC(C2C5O)[N+]3(CCCN2CCOCC2)C1O (stereo not shown) [Beispiel 8, Nb-(3-Morpholinopropyl)-10,12-dibromisoajmalinium-chlorid]
inhibition at 100 µg/mL [1]: 100%

CCC1C2CC3C4N(C)c5c(Br)cc(Br)cc5C45CC(C2C5O)[N+]3(C)C1O (stereo not shown) [Beispiel 12, Nb-Methyl-10,12-dibromisosandwicinium-hydrogenfumarat]
LD50 at 168 h [2]: 2400 µmol/kg | ED150 [3, 4]: 49 µmol/kg | ED150 [3, 5]: 58 µmol/kg | ED150 [3, 6]: 64 µmol/kg | inhibition at 100 µg/mL [1]: 83%
